Test results published in US11458200B2, “Constructs, agents, and methods for facilitated ablation of cardiac tissue” (priority 2016, dated 2022).
Entries after “also recorded” stand apart in the source; their conditions may differ.

Key:
adenocarcinoma tumor = conditions: combined quercetin and RF energy; cited from earlier work
epicardium = test: Open-chest rodent survival model of epicardial RF ablation after IV quercetin; assay type: in vivo; conditions: for Lesion Depth: 10 mg/kg
Experimental: Using an open-chest rodent survival model and a custom-made catheter, RF was applied to the epicardium at 3 W for 20 seconds after infusion of a HSP inhibitor, intravenous quercetin (n=20, 10 mg/kg), or control (n=20). Animals were sacrificed at 1 (n=10 each) and 24 hours (n=10 each) after ablation. RFA lesions were stained and analyzed under microscopy.

myocardium = conditions: porcine model; cited from earlier work
[1] = 24 hours after RFA, 3 W for 20 seconds, IV 10 mg/kg, N 10

| Compound | HSP expression (adenocarcinoma tumor) | apoptosis (adenocarcinoma tumor) | tumor destruction (adenocarcinoma tumor) | ablation lesions analyzed at 1 hour after RFA (epicardium; 1 hour after RFA, IV 10 mg/kg) | Volume (epicardium; [1]) [µL] | Lesion Depth (epicardium; [1]) [mm] | Lesion Depth (epicardium; 24 hours after RFA, 3 W for 20 seconds, IV 10 mg/kg, N 10, listed as quercetin) [mm] | lesion volumes (epicardium; 24 hours after ablation, vs 25.7±8.6 control, p=0.01) [µL] | adverse events related to HSP inhibition (epicardium; IV 10 mg/kg) | microscopy of lesions compared to controls (epicardium; in vivo) | ablation lesion sizes after in vivo injection (myocardium) |
| --- | --- | --- | --- | --- | --- | --- | --- | --- | --- | --- | --- |
| O=c1c(O)c(-c2ccc(O)c(O)c2)oc2cc(O)cc(O)c12 [Quercetin, 3,3′,4′,5,7-pentahydroxyflavone] | decreased HSP expression | increased apoptosis | larger tumor destruction | did not acutely result in larger ablation lesions | 37.6 ± 10.5 | 1.8 ± 0.3 | 1.8±0.3 | 37.6 ± 10.5 | No adverse events | larger necrotic cores and border zones |  |
| [Gd] [gadolinium] |  |  |  |  |  |  |  |  |  |  | increased lesion sizes; also recorded: larger lesions |
